Here are results for 3 compounds from article PMC8838850, “Synthesis, Antimicrobial, Anti-Virulence and Anticancer Evaluation of New 5(4H)-Oxazolone-Based Sulfonamides” (Molecules, 2022).

Assay [1] concerns Klebsiella pneumoniae ATCC 27736. Description: MIC by agar dilution. In kind it is cell-based. To be noted: ATCC27736, 37 °C, 20 h, read-out: Minimum inhibitory concentration (MIC). As to the method: (§1) The MICs of the synthesized compound were determined by agar dilution method according to the Clinical Laboratory and Standards Institute Guidelines (CLSI, 2015). Briefly, the tested strains were incubated overnight in tryptic soy broth (TSB) (Oxoid, United Kingdom) and then diluted in Muller–Hinton (MH) broth (Oxoid, United Kingdom) to turbidity approximating to the equivalent of 0.5 McFarland standard. The suspensions were further diluted with sterile saline (1:10) and standardized inoculums (approximately 10^4 CFU per spot) were spotted on the surfaces of MH agar (Oxoid, United Kingdom) plates containing different concentrations of tested compounds and a control plate. The MICs were the lowest concentrations that inhibit growth on the plates after incubation at 37 °C for 20 h.

Assay [2] has as its system Micrococcus spp. ATCC 10240. Description: MIC by agar dilution. The assay is classed as cell-based. The settings on record: ATCC10240, 37 °C, 20 h, read-out: Minimum inhibitory concentration (MIC). The method, then:
as §1

Assay [3] relates to Staphylococcus epidermidis ATCC 12228. The assay can be described thus: MIC by agar dilution. The settings on record: ATCC12228, 37 °C, 20 h, read-out: Minimum inhibitory concentration (MIC). In kind it is cell-based. As to the method:
as §1

The test system of assay [4] is Escherichia coli ATCC 10536. The assay can be described thus: MIC by agar dilution. The assay is classed as cell-based. The settings on record: ATCC10536, 37 °C, 20 h, read-out: Minimum inhibitory concentration (MIC). The method, then:
as §1

Assay [5] has as its system Salmonella typhimurium ATCC 14028. The assay can be described thus: MIC by agar dilution. The assay is classed as cell-based. To be noted: Salmonella enterica, 37 °C, 20 h, read-out: Minimum inhibitory concentration (MIC). The method, then:
as §1

Assay [6] relates to Staphylococcus aureus ATCC 6538. The assay can be described thus: MIC by agar dilution. To be noted: ATCC6538, 37 °C, 20 h, read-out: Minimum inhibitory concentration (MIC). In kind it is cell-based. The method, then:
as §1

The next assay deals with S. aureus ATCC 6538. The assay can be described thus: Biofilm formation assay (crystal violet, light microscopy). The assay is classed as cell-based, Staphylococcus aureus. The settings on record: sub-MIC (½ MIC), crystal violet method. As to the method:
Bacterial virulence is regulated via a quorum sensing (QS) system in an inducer/receptor manner. Diminishing bacterial virulence is an advantageous strategy to decrease the development of bacterial resistance. In this direction, anti-virulence and anti-QS activities have been explored in several studies as reviewed. The ability of P. aeruginosa or S. aureus to form biofilms was assayed in the absence or presence of tested compounds at sub-MIC. […] The experiment was conducted in triplicate and a one-way ANOVA test was employed to test the statistical significance using Graphpad Prism 8 software. The results were significant statistically where p values < 0.05. Moreover, microscopic visualization of biofilm under the effect of tested compounds was also performed by light microscopy. Representative images for the inhibitory effects on S. aureus and P. aeruginosa biofilm formation are shown (Figure 3C,D). The microscopic images show a marked reduction in both the thickness of and surface area covered by the biofilms in presence of the tested compound.
In order to evaluate the ability of the tested compounds to inhibit the biofilm formation, a strong biofilm forming P. aeruginosa ATCC 47,085 [47, 66] and S. aureus ATCC 6538 [67] strains were used. As described earlier, suspensions of tested strains were prepared from overnight cultures in TSB and their optical densities were adjusted to OD600 of 0.4 (1×10^8 CFU/mL). Aliquots of 10 μL of the suspensions were added to 1 mL amounts of fresh TSB with or without sub-MICs of tested compounds. […] The non-adherent cells were removed, the wells were washed with sterile PBS, and left to dry. The attached biofilm forming cells were fixed with methanol for 25 min and stained with 1% crystal violet for 30 min. The excess dye was washed out and the crystal violet staining adhered biofilm forming cells were eluted by glacial acetic acid (33%). The experiment was conducted in triplicate and the absorbance was measured at 590 nm. The absorbances of tested strains treated with different compounds were expressed as mean ± standard error of percentage change from untreated tested strains control. The percentages of biofilm inhibition were calculated employing the following formula: (absorbance of control—absorbance in presence of tested compounds)/absorbance of control.

The subject of a further assay is S. aureus. Description: Assay of protease production (casein substrate). The assay is classed as cell-based, Staphylococcus aureus. The settings on record: sub-MIC. The method, then: The effect of compounds 5, 7 and 10 on the production of protease was evaluated using casein substrate as described earlier. Briefly, overnight cultures of P. aeruginosa and S. aureus were cultivated in LB broth in the presence or absence of compounds 5, 7 and 10 at ½ MIC for 24 h at 37 °C. The supernatants were collected, mixed (1:1) with 0.05 M casein in phosphate buffer (2%) and NaOH (0.1 M) at pH 7.0, and incubated for 15 min at 37 °C. The reaction was stopped by adding 2 mL of 0.4 M trichloroacetic acid for 30 min at 25 °C. Any precipitates were removed, and the optical densities were detected at 660 nm. The assays were performed in triplicate and the obtained optical densities of tested strains treated with compounds 5, 7 and 10 were expressed as mean ± standard error of percentage change from untreated tested strains control (positive control) and LB (negative control). The protease inhibition percentages were calculated: (O.D control—O.D tested compounds)/O.D control.

The next assay has as its system BxPC-3. The assay can be described thus: SRB cellular proliferation assay. To be noted: Homo sapiens, BxPC-3 cells, mean ± SD (n = 3), read-out: IC50. In kind it is cell-based, human. The method, then: (§2) The pancreatic human cancer cell lines BxPC-3 and Panc-1, the human hepatocellular carcinoma (HepG-2), and the normal immortalized pancreatic cell line HPDE, that were used in this study, were obtained from the American Type Culture Collection (Rockville, USA). Cell lines were cultured and treated with the tested compounds or dimethyl sulfoxide (DMSO) as previously described. Cells were cultivated in DMEM medium (Invitrogen, Carlsbad, CA, USA), supplemented with streptomycin, penicillin and fetal bovine serum (FCS) (Invitrogen, Carlsbad, CA, USA). The sulforhodamine B (SRB) assay was employed to assess the anti-proliferative effects of tested compounds on cancer cells. Cell lines were incubated and regularly treated with DMSO or increasing doses of tested compounds for 48 h. The cells were fixed with 10% trichloroacetic acid and stained with SRB fluorescent dye for 30 min. Then, the bounded SRB dye to cellular proteins was dissolved in 10 mM Tris base after washing excess dye with 1% acetic acid. The absorbance was measured at 510 nm in a reader (Biotek, Winooski, VT, USA).

A further assay relates to HepG-2. Description: SRB cellular proliferation assay. The assay is classed as cell-based, human. To be noted: Homo sapiens, HepG2, HepG-2 cells, mean ± SD (n = 3), read-out: IC50. As to the method: as §2
A further assay has as its system Panc-1. The assay can be described thus: SRB cellular proliferation assay. The assay is classed as cell-based, human. To be noted: Homo sapiens, Panc-1 cells, mean ± SD (n = 3), read-out: IC50. The method, then:
as §2

The test system of assay [7] is Candida albicans ATCC 10231. Description: MIC by agar dilution (antifungal). To be noted: Candida albicans, ATCC10231, Candida albicans ATCC 10231, read-out: Minimum inhibitory concentration (MIC). In kind it is cell-based.

In brackets after ≈: the same amount, converted by molar mass.

Take `Cc1ccc(S(=O)(=O)Nc2ccccc2C2=N/C(=C/c3ccc([N+](=O)[O-])cc3)C(=O)O2)cc1` [Compound 9f, (E)-4-Methyl-N-(2-(4-(4-nitrobenzylidene)-5-oxo-4,5-dihydrooxazol-2-yl)phenyl)benzenesulfonamide]: the MIC in [1] is 2 mg/L (≈ 4.32 µM); in assay [2] it was 2 mg/L (≈ 4.32 µM); in [3], 2 mg/L (≈ 4.32 µM); in assay [4], 4 mg/L (≈ 8.63 µM); in assay [5] it was 2 mg/L (≈ 4.32 µM); in assay [6], 2 mg/L (≈ 4.32 µM). The MIC in [7] is greater than 32 mg/L. In addition, the “Inhibition of biofilm formation” value with S. aureus ATCC 6538 is reported as “highest abilities to inhibit biofilm formation”. For the same compound, the Production of protease entry in the assay with S. aureus was “significantly reduced the production of protease”. The figures for the IC50 in the assay on BxPC-3, in the assay with HepG-2 and in the assay with Panc-1 were 14.2 ± 1.87 mg/L (≈ 30.6 µM), 6.39 ± 1.25 mg/L (≈ 13.8 µM) and 12.6 ± 1.2 mg/L (≈ 27.2 µM), respectively.

Turning to `Cc1ccc(S(=O)(=O)Nc2ccccc2C2=N/C(=C/c3ccccc3)C(=O)O2)cc1` [Compound 9a, (E)-N-(2-(4-Benzylidene-5-oxo-4,5-dihydrooxazol-2-yl)phenyl)-4-methylbenzenesulfonamide], the MIC in [1] turned out to be 4 mg/L (≈ 9.56 µM); in assay [2] it was 4 mg/L (≈ 9.56 µM); in assay [3] it was 4 mg/L (≈ 9.56 µM); in assay [4], 2 mg/L (≈ 4.78 µM); in assay [5], 4 mg/L (≈ 9.56 µM); in [6], 4 mg/L (≈ 9.56 µM). Besides, the MIC in [7] worked out at 16 mg/L (≈ 38.2 µM). In addition, in the assay on S. aureus ATCC 6538, the “Inhibition of biofilm formation” value was “highest abilities to inhibit biofilm formation”. The Production of protease result with S. aureus was “significantly reduced the production of protease”. Besides, the IC50 is 14.4 ± 0.73 mg/L (≈ 34.4 µM) with BxPC-3, 11 ± 2.39 mg/L (≈ 26.2 µM) in the assay on HepG-2 and 11.9 ± 0.76 mg/L (≈ 28.6 µM) in the assay with Panc-1.

`COc1ccc(/C=C2/N=C(c3ccccc3NS(=O)(=O)c3ccc(C)cc3)OC2=O)cc1` [Compound 9b, (E)-N-(2-(4-(4-Methoxybenzylidene)-5-oxo-4,5-dihydrooxazol-2-yl)phenyl)-4-methylbenzenesulfonamide]: the MIC in assay [1] amounted to 4 mg/L (≈ 8.92 µM); in [2], 1 mg/L (≈ 2.23 µM); in assay [3], 1 mg/L (≈ 2.23 µM); in assay [4], 2 mg/L (≈ 4.46 µM); in [5] it was 4 mg/L (≈ 8.92 µM); in assay [6], 2 mg/L (≈ 4.46 µM). Also, in assay [7], the MIC is greater than 32 mg/L. For the same compound, the “Inhibition of biofilm formation” value in the assay with S. aureus ATCC 6538 is listed as “highest abilities to inhibit biofilm formation”. The Production of protease result with S. aureus is given as “significantly reduced the production of protease”. Besides, the IC50 in the assay with BxPC-3 was 14.9 ± 4.19 mg/L (≈ 33.2 µM); with HepG-2 it was 8.53 ± 1.1 mg/L (≈ 19 µM); in the assay on Panc-1, 13.6 ± 1.16 mg/L (≈ 30.4 µM).
